Reference: ChEMBL document CHEMBL6115017, “Discovery of DFV890, a Potent Sulfonimidamide-Containing NLRP3 Inflammasome Inhibitor” (J Med Chem, 2025)
Converted amounts (≈) assume the structure as drawn. The source made the active and inactive calls. No cut-off for these calls is given here.

How the values were obtained:
[1] = Half life in Beagle dog at 2 mg/kg, po and 1 mg/kg, iv by LC-MS analysis; type: ADME, organism-based, Canis lupus familiaris; conditions: in vivo
Macrophage [2] = experiment: Inhibition of AIM2 inflammasome activation in mouse iMac assessed as inhibition of poly(dA:dT) induced IL-1beta release pretreated for 1 hr followed by induced with poly(dA:dT) measured after 2 hr incubation by HTRF analysis; type: cell-based; conditions: time 3.0 hrs
THP-1 [3] = experiment: Antagonist activity against […] in PMA-primed human THP-1 cells assessed as inhibition of PrgI-induced IL-1beta release measured pretreated for 1 hr followed by induced with LFn-PrgI measured after 2 hr incubation by HTRF analysis; type: cell-based; conditions: time 3.0 hrs
THP-1 [4] = experiment: Inhibition of mCerulean-tagged ASC pyroptosome formation in PMA-primed human THP-1 cells assessed as speak count pretreated for 1 hr followed by stimulated with gramicidin for 2 hrs by fluorescence imaging analysis; type: cell-based; conditions: dose 0.001-100 µM
Mus musculus [5] = experiment: In vivo inhibition of NLRP3 dependent cytokine production in po dosed LPS-challenged C57BL/6 mouse model assessed as inhibition of LPS-induced IL-6 production in blood pretreated for 1 hr followed by induced with LPS measured after 5 hrs by cytokine bead assay; type: functional, organism-based; conditions: time 6.0 hrs
[6] = Cmax in Beagle dog at 2 mg/kg, po by LC-MS analysis; type: ADME, organism-based, Canis lupus familiaris; conditions: in vivo
[7] = AUC (infinity) in Sprague-Dawley rat at 5 mg/kg, po by LC-MS analysis; type: ADME, organism-based; conditions: in vivo
Cytochrome P450 2C8 [8] = biological target: T1, Cytochrome P450 2C8 (Homo sapiens, UniProt P10632); experiment: Inhibition of CYP2C8 (unknown origin) by time dependent inhibition assay; type: ADME
T1 sequence (P10632 whole entry): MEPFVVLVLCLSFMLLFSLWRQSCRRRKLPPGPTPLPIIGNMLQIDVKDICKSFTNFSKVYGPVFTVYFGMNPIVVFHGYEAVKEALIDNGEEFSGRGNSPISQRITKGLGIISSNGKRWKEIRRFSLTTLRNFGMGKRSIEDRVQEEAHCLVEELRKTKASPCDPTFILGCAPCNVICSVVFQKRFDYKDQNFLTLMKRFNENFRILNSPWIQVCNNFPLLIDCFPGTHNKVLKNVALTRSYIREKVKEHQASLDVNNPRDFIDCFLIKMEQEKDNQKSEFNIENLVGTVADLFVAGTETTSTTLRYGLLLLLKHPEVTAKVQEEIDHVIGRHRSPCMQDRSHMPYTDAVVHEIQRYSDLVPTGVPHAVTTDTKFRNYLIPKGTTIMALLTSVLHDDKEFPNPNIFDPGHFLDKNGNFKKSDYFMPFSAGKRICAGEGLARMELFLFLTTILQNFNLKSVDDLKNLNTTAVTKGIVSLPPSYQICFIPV

[9] = Cmax in Cynomolgus monkey at 5 mg/kg, po by LC-MS analysis; type: ADME, organism-based, Macaca fascicularis; conditions: in vivo
Cytochrome P450 2C8 [10] = biological target: T1, Cytochrome P450 2C8; experiment: Inhibition of CYP2C8 (unknown origin); type: ADME
[11] = Volume of distribution at steady state in Beagle dog at 2 mg/kg, po and 1 mg/kg, iv by LC-MS analysis; type: ADME, organism-based, Canis lupus familiaris; conditions: in vivo
[12] = In vivo inhibition of NLRP3 dependent cytokine production in po dosed LPS-challenged C57BL/6 mouse model assessed as inhibition of LPS-induced IL-1beta production in blood by measuring plasma compound concentration by enhanced flex bead assay; type: functional, organism-based
[13] = biological target: Nucleotide-binding oligomerization domain-containing protein 2 (Homo sapiens) (UniProt Q9HC29); experiment: Inhibition of human NOD2 inflammasome activation expressed in […] cells assessed as inhibition of L18-MDP induced NF-kappaB activation by measuring SEAP activity pretreated for 1 hr followed by induced with L18-MDP measured after 18 hrs by Spectrophotometric analysis; type: cell-based; conditions: HEK, time 19.0 hrs
Cytochrome P450 2D6 = Cytochrome P450 2D6 (Homo sapiens, UniProt P10635); experiment: Inhibition of CYP2D6 (unknown origin) by time dependent inhibition assay; type: ADME
[14] = Volume of distribution at steady state in Cynomolgus monkey at 5 mg/kg, po and 2 mg/kg, iv by LC-MS analysis; type: ADME, organism-based, Macaca fascicularis; conditions: in vivo
cells = conditions: Macaca fascicularis, PBMC
Description: Antagonist activity at NLRP3 inflammasome activation in Cynomolgus monkey PBMC assessed as inhibition of LPS-stimulated IL-1beta release pretreated for 1 hr followed by induced with LPS measured after 18 hrs by HTRF analysis

[15] = Volume of distribution at steady state in Sprague-Dawley rat at 5 mg/kg, po by LC-MS analysis; type: ADME, organism-based; conditions: in vivo
[16] = Volume of distribution at steady state in C57 BL6 mouse at 10 mg/kg, po and 2 mg/kg, iv by LC-MS analysis; type: ADME, organism-based; conditions: in vivo
[17] = Half life in Sprague-Dawley rat at 5 mg/kg, po by LC-MS analysis; type: ADME, organism-based; conditions: in vivo
[18] = biological target: Voltage-gated inwardly rectifying potassium channel KCNH2 (Homo sapiens, UniProt Q12809); experiment: Inhibition of hERG; type: toxicity
Macrophage [19] = experiment: Inhibition of pyrin inflammasome activation in immortalized NLRP3-KO mouse macrophages assessed as inhibition of TcdB-induced IL-1beta release pretreated for 1 hr followed by induced with TcdB measured after 6 hrs by HTRF analysis; type: cell-based; conditions: time 7.0 hrs
Mus musculus [20] = experiment: In vivo anti-inflammatory activity against MSU crystal-induced gouty arthritis Balb/c mouse model assessed as reduction in neutrophil recruitment in at 0.1 to 50 mg/kg, po single dose; type: functional, organism-based; conditions: dose 0.1-50 mg/kg
[21] = Cmax in Sprague-Dawley rat at 5 mg/kg, po by LC-MS analysis; type: ADME, organism-based; conditions: in vivo
[22] = Solubility of the compound in PBS at pH 7.4; type: physicochemical
[23] = Fraction unbound in Cynomolgus monkey plasma; type: ADME, cell-free, Macaca fascicularis
[24] = Cmax in C57 BL6 mouse at 10 mg/kg, po by LC-MS analysis; type: ADME, organism-based; conditions: in vivo
Cytochrome P450 2C19 = Cytochrome P450 2C19 (Homo sapiens, UniProt P33261); experiment: Inhibition of CYP2C19 (unknown origin) by time dependent inhibition assay; type: ADME
[25] = AUC (infinity) in C57 BL6 mouse at 10 mg/kg, po by LC-MS analysis; type: ADME, organism-based; conditions: in vivo
[26] = Fraction unbound in Sprague-Dawley rat plasma; type: ADME, cell-free
[27] = Half life in Cynomolgus monkey at 5 mg/kg, po and 2 mg/kg, iv by LC-MS analysis; type: ADME, organism-based, Macaca fascicularis; conditions: in vivo

Voltage-gated inwardly rectifying potassium channel KCNH2, sequence (Q12809 whole entry): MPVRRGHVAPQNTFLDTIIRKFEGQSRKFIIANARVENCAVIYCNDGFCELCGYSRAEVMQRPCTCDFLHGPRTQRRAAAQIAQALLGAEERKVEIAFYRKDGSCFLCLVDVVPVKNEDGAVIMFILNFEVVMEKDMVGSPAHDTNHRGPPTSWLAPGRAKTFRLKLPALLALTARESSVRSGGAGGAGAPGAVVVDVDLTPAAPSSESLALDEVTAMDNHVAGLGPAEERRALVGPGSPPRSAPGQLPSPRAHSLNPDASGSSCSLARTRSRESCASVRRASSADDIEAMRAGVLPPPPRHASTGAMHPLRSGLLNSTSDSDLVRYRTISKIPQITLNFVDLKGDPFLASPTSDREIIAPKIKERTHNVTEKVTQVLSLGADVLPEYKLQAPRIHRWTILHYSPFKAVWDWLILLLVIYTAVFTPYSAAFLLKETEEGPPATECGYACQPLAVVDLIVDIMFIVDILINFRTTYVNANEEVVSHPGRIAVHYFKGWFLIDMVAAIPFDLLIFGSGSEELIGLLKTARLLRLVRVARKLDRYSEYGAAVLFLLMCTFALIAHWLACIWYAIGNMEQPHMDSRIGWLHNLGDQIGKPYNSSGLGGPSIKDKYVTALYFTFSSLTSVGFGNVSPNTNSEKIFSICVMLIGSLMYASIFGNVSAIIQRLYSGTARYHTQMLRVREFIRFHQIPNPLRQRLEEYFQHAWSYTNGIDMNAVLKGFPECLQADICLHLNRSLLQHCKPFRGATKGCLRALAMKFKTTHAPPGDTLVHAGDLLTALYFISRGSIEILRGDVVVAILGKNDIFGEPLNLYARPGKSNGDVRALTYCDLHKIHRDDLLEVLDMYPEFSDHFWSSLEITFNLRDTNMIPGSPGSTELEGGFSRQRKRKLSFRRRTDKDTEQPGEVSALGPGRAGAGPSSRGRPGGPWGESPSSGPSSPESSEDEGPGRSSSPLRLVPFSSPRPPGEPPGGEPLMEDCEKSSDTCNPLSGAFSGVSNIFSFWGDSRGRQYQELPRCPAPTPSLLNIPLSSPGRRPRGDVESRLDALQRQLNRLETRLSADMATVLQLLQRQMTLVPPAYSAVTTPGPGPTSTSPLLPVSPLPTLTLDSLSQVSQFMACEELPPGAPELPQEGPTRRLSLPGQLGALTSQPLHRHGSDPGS
Cytochrome P450 2D6, sequence (P10635 whole entry): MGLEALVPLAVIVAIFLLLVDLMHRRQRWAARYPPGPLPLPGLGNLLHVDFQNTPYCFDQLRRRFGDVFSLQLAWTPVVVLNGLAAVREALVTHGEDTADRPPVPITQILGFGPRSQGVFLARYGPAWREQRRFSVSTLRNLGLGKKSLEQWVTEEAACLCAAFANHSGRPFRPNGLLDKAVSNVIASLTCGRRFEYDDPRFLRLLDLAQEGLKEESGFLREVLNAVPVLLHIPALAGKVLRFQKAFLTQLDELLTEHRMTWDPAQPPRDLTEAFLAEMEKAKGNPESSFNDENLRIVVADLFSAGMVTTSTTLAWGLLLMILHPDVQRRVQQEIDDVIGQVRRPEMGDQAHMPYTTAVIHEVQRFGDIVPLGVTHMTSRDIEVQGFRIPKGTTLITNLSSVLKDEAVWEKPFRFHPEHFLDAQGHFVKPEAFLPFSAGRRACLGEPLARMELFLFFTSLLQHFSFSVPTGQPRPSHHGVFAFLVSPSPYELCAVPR
Nucleotide-binding oligomerization domain-containing protein 2 (Homo sapiens), sequence (Q9HC29 whole entry, the tested form may be a part): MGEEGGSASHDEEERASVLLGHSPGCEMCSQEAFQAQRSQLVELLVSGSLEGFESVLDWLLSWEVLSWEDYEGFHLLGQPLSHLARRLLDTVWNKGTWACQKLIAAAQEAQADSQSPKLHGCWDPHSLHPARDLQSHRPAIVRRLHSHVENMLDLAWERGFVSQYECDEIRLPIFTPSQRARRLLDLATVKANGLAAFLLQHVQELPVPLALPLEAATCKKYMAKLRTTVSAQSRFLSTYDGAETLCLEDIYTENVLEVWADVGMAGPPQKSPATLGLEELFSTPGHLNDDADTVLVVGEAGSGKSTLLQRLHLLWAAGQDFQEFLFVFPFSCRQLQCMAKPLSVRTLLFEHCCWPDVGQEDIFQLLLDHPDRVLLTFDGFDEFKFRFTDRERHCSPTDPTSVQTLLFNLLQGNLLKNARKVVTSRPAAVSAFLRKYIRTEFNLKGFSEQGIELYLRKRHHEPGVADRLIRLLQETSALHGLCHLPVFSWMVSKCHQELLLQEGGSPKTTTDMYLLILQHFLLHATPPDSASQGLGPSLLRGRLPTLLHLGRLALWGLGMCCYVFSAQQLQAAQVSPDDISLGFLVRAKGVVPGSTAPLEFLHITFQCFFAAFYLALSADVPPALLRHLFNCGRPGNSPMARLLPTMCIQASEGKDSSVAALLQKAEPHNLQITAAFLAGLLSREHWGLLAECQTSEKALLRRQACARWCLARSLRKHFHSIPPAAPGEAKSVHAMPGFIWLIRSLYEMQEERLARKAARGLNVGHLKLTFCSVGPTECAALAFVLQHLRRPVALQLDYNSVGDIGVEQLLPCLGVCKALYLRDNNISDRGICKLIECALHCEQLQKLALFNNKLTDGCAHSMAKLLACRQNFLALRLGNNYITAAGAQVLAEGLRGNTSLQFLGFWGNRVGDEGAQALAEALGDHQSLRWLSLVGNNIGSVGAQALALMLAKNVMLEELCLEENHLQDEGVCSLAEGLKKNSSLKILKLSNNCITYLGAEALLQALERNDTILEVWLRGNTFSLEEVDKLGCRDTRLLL
Cytochrome P450 2C19, sequence (P33261 whole entry): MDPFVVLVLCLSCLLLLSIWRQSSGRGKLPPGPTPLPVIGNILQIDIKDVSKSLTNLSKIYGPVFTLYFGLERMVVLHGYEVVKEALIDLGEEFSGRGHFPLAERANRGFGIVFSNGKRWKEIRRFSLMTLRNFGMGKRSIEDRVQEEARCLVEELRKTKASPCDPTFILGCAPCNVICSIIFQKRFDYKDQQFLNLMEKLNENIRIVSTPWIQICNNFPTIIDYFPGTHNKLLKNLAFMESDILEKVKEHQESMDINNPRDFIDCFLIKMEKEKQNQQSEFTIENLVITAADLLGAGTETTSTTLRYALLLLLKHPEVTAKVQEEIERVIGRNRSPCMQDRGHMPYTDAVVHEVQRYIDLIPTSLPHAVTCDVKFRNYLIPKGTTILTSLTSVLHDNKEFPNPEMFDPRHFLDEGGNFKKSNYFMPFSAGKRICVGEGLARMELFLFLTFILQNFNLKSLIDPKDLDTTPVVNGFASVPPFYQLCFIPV

With `CC(C)(O)c1ncc([S@](N)(=O)=NC(=O)Nc2c3c(cc4c2CCC4)CCC3)s1` the half-life [1] was 9.4 h, the Activity (Macrophage [2]) was “inactive” and the Activity (THP-1 [3]) was “inactive”. The inhibition (THP-1 [4]) was “Dose-dependent-effect”, the inhibition (Mus musculus [5]) was “Dose-dependent-effect” and the Cmax [6] was 6560 ng/mL. For the same molecule, the AUC [7] was 49.125 µg·h/mL, the TDI (Cytochrome P450 2C8 [8]) was “Not_active” and the Cmax [9] was 21500 ng/mL. For the same molecule, the IC50 (Cytochrome P450 2C8 [10]) was over 60 µM, the Vdss [11] was 0.16 L/kg and the IC50 ([12]; Mus musculus, C57BL/6) was 0.416 µg/mL. For the same molecule, the IC90 ([12]; route po) was 3.742 µg/mL, the Activity [13] was “inactive” and the TDI (Cytochrome P450 2D6) was “Not_active”. For the same molecule, the Vdss [14] was 0.084 L/kg, the IC50 (cells) was 0.0061 µM and the Vdss [15] was 0.188 L/kg. The Vdss [16] was 0.12 L/kg, the half-life [17] was 2.81 h and the IC50 [18] was over 30 µM. The Activity (Macrophage [19]) was “inactive”, the Activity (Mus musculus [20]) was “Active” and the Cmax [21] was 8860 ng/mL. For the same molecule, the solubility [22] was 21 µg/mL (≈ 49.9 µM), the fraction unbound [23] was 0.005 and the Cmax [24] was 22200 ng/mL. The TDI (Cytochrome P450 2C19) was “Not_active”, the AUC(0-inf) [25] was 261 µg·h/mL and the fraction unbound [26] was 0.012. The half-life [27] was 5.2 h.
